From patent publication US20140315972A1, “RS)-2-(2-oxo-4-phenylpyrrolidin-1-yl)acetamide compound having modulatory activity with a commensurate effect, pharmaceutical substance (variants) and its application, composition (variants) thereof” (priority 2011, published 2014)
Marks after values point to notes of the source that are not given here.

Columns and labels:
[1] = system: mice; test: Acute toxicity, single intraperitoneal injection in male mice; format: in vivo; details: male mice 18-24 g; single i.p.
Method: Tables 2, 2.1 and 2.2 present the results of acute toxicity studies of the Compounds with active substance content in at least white outbred male mice (body weight 18-24 g) and white outbred rats 30-35 days of age, of both sexes with a single dose. Calculation of toxic doses was made using the Wilcoxon and Litchfield method. Observations were made over 24 hours and 14 days after a single dose.
LD50 in rat pups after intragastric administration was not found. Intragastric administration to rat pups of doses of more than 1000 mg/kg is technically impossible due to the small volume of the stomach (Table 2.2).

[2] = system: rats; test: Hypotensive activity in rats (cannula in carotid artery); format: in vivo; details: adult rats; i.p. and intragastric 50-100 mg/kg; one hour after administration
Method: Study of the effect of Phenotropil on cerebral blood flow, systemic blood pressure (BP) and the nervous regulation of blood circulation was made on 6 anesthetized cats under general anesthesia (urethane+chloralose). Phenotropil was administered intravenously at a dose of 50 mg/kg with distilled water; the baseline state of each animal prior to drug administration served as control. Cerebral blood flow was recorded in the common carotid artery (CCA) by an electromagnetic meter. The nervous regulation of cerebral circulation was judged by the vasomotor pressor reflex (VPR). The results of the experiment show (Table 6.1) that the racemic compound causes a moderate increase in cerebral blood flow in anesthetized animals. The cerebrovascular effect is accompanied by vascular hypotension with manifestation of oppression of the vasomotor reflex. The biphasic behaviour of SBP is consistent with the pattern of the effect on TSIP under no abnormalities with stabilization of the normotonic state. At intraperitoneal and intragastric administration of Phenotropil (25-300 mg/kg) to white outbred adult rats of both sexes, hypotensive activity (by blood method through the cannula connected to the carotid artery) was manifested one hour after administration at doses of 50-100 mg/kg and was in average 13%±2.85, while with increasing doses this effect disappears. […]

[3] = system: rats; test: Hemorrhagic stroke (intracerebral post-traumatic hematoma), McGrow scale; format: in vivo
Source text: The stroke condition was simulated in male rats (270-320 g) at a local cerebral hemorrhage, as a hemorrhagic stroke (intracerebral post-traumatic hematoma) by the method of A. N. Makarenko et al (1990) and at cerebral ischemia with distal occlusion of the middle cerebral artery (Chen S. T., Hsu C. Y., Hogan E. L., Maricq H., Balentine J. D. A model of focal ischemic stroke in the rat reproducible extensive cortical infarction//Stroke.—1989, V. 17, No 4, p. 738-743) as an ischemic stroke. Phenotropil was injected intraperitoneally at hemorrhagic stroke at 100 mg/kg immediately after surgery, and one hour before and two hours after the surgery (at doses of 100, 200 and 300 mg/kg) at ischemic stroke. Control animals were treated adequately with distilled water.

[4] = system: rats; test: Carrageenan-induced paw edema; format: in vivo; details: 100 mg/kg intragastrically 60 minutes before carrageenan
Method: To identify and assess the anti-inflammatory action of Phenotropil, a standard technique was used; the carrageenan-induced paw edema in rats (Winter C. et al, 1962). Phenotropil at a dose of 100 mg/kg was administered intragastrically 60 minutes before carrageenan. Control animals received distilled water. Additionally, the topical application by method of formalin induced edema was investigated (subplantar administration of 0.1 ml of 2% formalin solution). Phenotropil for topical use was prepared (1:1) on the standard ointment base carrier at 100 mg/kg of body weight for each animal (150-220 g). The preparation was rubbed in the leg and a gauze patch was applied for 2 hours and 1 hour before the induction of inflammation.

[5] = system: IL-1; test: Cytokine profile in supernatants of peripheral mononuclear cultures (ELISA), asthenoneurotic patients; format: in vivo, human; details: for IL-1: asthenoneurotic disorders, humans
Method: (§1) The study of immunocompetent activity of Phenotropil included patients with neurasthenia and organic asthenic disorder (20-47 years) of both sexes (men 37%, women 63%). Control group included practically healthy people (20 people). The study groups were similar in age and sex ratio. Phenotropil was administered at a dose of 100 mg/day, one time in the morning for 30 days. Study of the immune and mental status (level of IL-1, IL-2, IL-3, IL-6, α-TNF, α-INF in supernatants of cultures of peripheral mononuclears from whole blood) was carried out before treatment and at days 7, 14, 21 after the therapy course (30 days) and after 3 months of therapy. Blood sampling for analysis was carried out at the same time of day in the control group and in the group of patients. Peripheral mononuclear cells were isolated from the whole blood; interleukin level was determined by ELISA kits (“Immunotech”, France).

[6] = system: IL-2; test: as above; format: in vivo, human; details: for IL-2 (×10): asthenoneurotic disorders, humans
Method: as §1

[7] = system: IL-3; test: as above; format: in vivo, human; details: for IL-3 (×10): asthenoneurotic disorders, humans
Method: as §1

[8] = system: IL-6; test: as above; format: in vivo, human; details: for IL-6: asthenoneurotic disorders, humans
Method: as §1

[9] = system: α-INF; test: as above; format: in vivo, human; details: for α-INF: asthenoneurotic disorders, humans
Method: as §1

[10] = system: α-TNF; test: as above; format: in vivo, human; details: for α-TNF (×100): asthenoneurotic disorders, humans
Method: as §1

[11] = rats, hemorrhagic stroke, 100 mg/kg i.p., 1 day after surgery
[12] = After treatment (one month course)
[13] = patients, 100 mg/day 30 days, after course
[14] = patients, three months after the therapy

## NC(=O)CN1CC(c2ccccc2)CC1=O (racemic) [Compound 1, (RS)-2-(2-oxo-4-phenylpyrrolidine-1-yl)acetamide]
[1]
  LD50: 1042 (982.9-1102.0) mg/kg
[2]
  hypotensive activity, average: 13%±2.85
[3]; hemorrhagic and ischemic stroke in rats, follow up 14 days
  prevention of lethal outcomes, % of cases: 100%
[3]; [11]
  % of animals with circling movements: 0* %
  % of animals with lethargy, slowness of movement: 30%
  % of animals with paralysis of 1-4 limbs: 0* %
  % of animals with paresis of 1-4 limbs: 20* %
  % of animals with weakness of limbs: 30* %
  Mortality: 0* %
[4]
  shortening of inflammation vs control: 52.3%
[5]; [12]
  IL-1: 1.65 ± 0.03
[5]; At 3 months after treatment
  IL-1: 1.63 ± 0.04
[5]; [13]
  IL-1 level vs baseline values: −3.5%
[5]; [14]
  IL-1 level vs baseline: −4.6%
[6]; [12]
  IL-2 (×10): 2.09 ± 0.04
[6]; At 3 months after treatment
  IL-2 (×10): 2.21 ± 0.04
[6]; [13]
  IL-2 level vs baseline values: +8.9%
[6]; [14]
  IL-2 level vs baseline: +15.1%
[7]; [12]
  IL-3 (×10): 2.13 ± 0.05
[7]; At 3 months after treatment
  IL-3 (×10): 2.23 ± 0.06
[7]; [13]
  IL-3 level vs baseline values: +12.7%
[7]; [14]
  IL-3 level vs baseline: +18.0%
[8]; [12]
  IL-6: 3.55 ± 0.15
[8]; At 3 months after treatment
  IL-6: 3.80 ± 0.03
[8]; [13]
  IL-6 level vs baseline values: +11.3%
[8]; [14]
  IL-6 level vs baseline: +19.0%
[9]; [12]
  α-INF: 4.18 ± 0.06
[9]; At 3 months after treatment
  α-INF: 4.11 ± 0.05
[9]; [13]
  α-INF level vs baseline values: −10.3%
[9]; [14]
  α-INF level vs baseline: −11.8%
[10]; [12]
  α-TNF (×100): 8.56 ± 0.60
[10]; At 3 months after treatment
  α-TNF (×100): 7.92 ± 0.54
[10]; [13]
  α-TNF level vs baseline values: −11.6%
[10]; [14]
  α-TNF level vs baseline: −18.2%
